From publication PMC2074469

Key:
aromatase [1] = target: T1, aromatase (Homo sapiens, UniProt P11511); assay: Serum oestradiol suppression in healthy post-menopausal female volunteers (trials 1 and 2); type: in vivo; conditions: for women with serum oestradiol below the limit of detection of the assay: limit of detection 3 pmol l-1; for mean BS oestradiol concentration 24 h after dosing on days 13 and 14, adjusted geometric mean / BS oestradiol AUC days 1-14, adjusted geometric mean: baseline-scaled; for BS oestradiol AUC days 1-14, adjusted geometric mean: normalised by time; for mean post-dose scaled oestradiol suppression compared with baseline: mean of 24 h after doses on days 13 and 14
T1 construct: from tissue; host or cells: peripheral tissues of healthy post-menopausal female volunteers (in vivo; serum oestrogens measured)
T1 sequence (P11511 1-503): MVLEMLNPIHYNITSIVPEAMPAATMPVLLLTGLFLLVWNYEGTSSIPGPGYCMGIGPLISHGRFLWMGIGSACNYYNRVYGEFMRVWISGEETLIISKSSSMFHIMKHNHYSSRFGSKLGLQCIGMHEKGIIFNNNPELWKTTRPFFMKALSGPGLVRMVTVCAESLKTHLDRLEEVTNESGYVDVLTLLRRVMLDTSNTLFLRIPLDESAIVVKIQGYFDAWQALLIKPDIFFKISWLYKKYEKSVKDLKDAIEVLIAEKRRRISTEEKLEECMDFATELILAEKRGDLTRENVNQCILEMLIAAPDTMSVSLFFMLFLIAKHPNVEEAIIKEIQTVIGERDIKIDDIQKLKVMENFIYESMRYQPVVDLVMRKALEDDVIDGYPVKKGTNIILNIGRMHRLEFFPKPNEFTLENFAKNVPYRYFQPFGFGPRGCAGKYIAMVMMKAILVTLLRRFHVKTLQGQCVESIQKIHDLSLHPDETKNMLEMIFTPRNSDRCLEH
Description: (§1) Summary Two multiple-dose studies were conducted in healthy post-menopausal female volunteers to investigate the pharmacokinetics and effects on endocrinology of Arimidex (ZD1033). Volunteers in the first trial were dosed with 3 mg of ZD1033 daily over 10 days to assess the effects on endocrinology of ZD1033 and establish the pharmacokinetic profile. In the second trial volunteers received 14 daily doses of either 0.5 or 1.0 mg of ZD1033 to assess the pharmacokinetics of ZD1033 and the effects of low doses of ZD1033 on serum oestradiol concentrations. […] Keywords: Arimidex; aromatase inhibitor; oestrogen Breast cancer is the most common type of cancer in women, accounting for 10% of all female cancers. […] ZD1033 is an achiral benzyltriazole derivative, 2,2[5-(1 H- 12,4-triazol- I -ylmethyl)- 1,3-phenylene] bis (2- methyl-propriononitrile) (Figure 1). […] ZD1033 is currently being evaluated in identical phase III efficacy and tolerability studies vs megestrol acetate in post- menopausal women with advanced breast cancer in the USA and Europe. This paper describes two studies that investigated the pharmacokinetic profile, selectivity, tolerability and efficacy in oestradiol suppression of multiple doses of ZD1033. The objective of the studies was to determine the minimum dose required for maximal suppression of circulating oestradiol, while retaining selectivity for the aromatase enzyme. […] Methods The two trials were randomised, double-blind, placebo- controlled multiple-dose studies in healthy post-menopausal female volunteers aged between 45 and 62 years (inclusive). Both trials had the same entry criteria and were of similar design. In the first study (trial 1), a total of eight volunteers were given eight doses of 3 mg of ZD1033 over 10 days to assess tolerability, pharmacokinetics and effects on endocrinology. In the second study (trial 2) a total of 14 volunteers were given 0.5 and 1 mg doses of ZD1033 daily for 14 days to assess the tolerability, pharmacokinetics and effect on serum oestradiol concentrations only. […] The key inclusion criteria were: at least one intact ovary; cervical smear negative for malignancy within the previous 12 months; normal clinical laboratory parameters and; normal clinical examination. Key exclusion criteria were a history of malignant breast disease or previous hysterectomy as a result of malignancy. […] A dose of 3 mg ZD1033 or matching placebo was then given on the following 7 consecutive days (study days 4-10). […] Samples for assay of serum aldosterone, cortisol, 17- hydroxyprogesterone (17-HP), dehydroepiandrosterone sul- phate (DHEA-S), luteinising hormone (LH), FSH and adrenocorticotrophic hormone (ACTH) were collected before and 3 h after dosing on study days 1 and 10 of both treatment periods. Additional samples for cortisol assay were also collected before dosing on study days 3, 5, 7 and 9 in both treatment periods. An ACTH stimulation test was performed 3 h after the dose on study day 10.

aromatase [2] = target: T1, aromatase; assay: Serum oestrone suppression, trial 1 (3 mg of ZD1033 vs placebo); type: in vivo
Description: as §1

adrenal steroidogenesis = assay: Serum adrenal steroid concentrations, trial 1 (cortisol, aldosterone, 17-HP, androstenedione, DHEA-S); type: in vivo, human
Description: as §1

gonadotrophin release = assay: Serum pituitary hormones, trial 1 (ACTH, LH, FSH); type: in vivo, human; conditions: for scaled FSH: percentage change of scaled geometric mean relative to placebo / scaled LH: percentage change of scaled geometric mean relative to placebo: 3 mg
Description: as §1

[3] = system: steroid response to ACTH challenge; assay: ACTH stimulation test (synacthen), trial 1 study day 10; type: in vivo, human; conditions: 3 mg, 30 and 60 min after ACTH
Description: (§2) Summary Two multiple-dose studies were conducted in healthy post-menopausal female volunteers to investigate the pharmacokinetics and effects on endocrinology of Arimidex (ZD1033). Volunteers in the first trial were dosed with 3 mg of ZD1033 daily over 10 days to assess the effects on endocrinology of ZD1033 and establish the pharmacokinetic profile. In the second trial volunteers received 14 daily doses of either 0.5 or 1.0 mg of ZD1033 to assess the pharmacokinetics of ZD1033 and the effects of low doses of ZD1033 on serum oestradiol concentrations. […] Keywords: Arimidex; aromatase inhibitor; oestrogen Breast cancer is the most common type of cancer in women, accounting for 10% of all female cancers. […] ZD1033 is an achiral benzyltriazole derivative, 2,2[5-(1 H- 12,4-triazol- I -ylmethyl)- 1,3-phenylene] bis (2- methyl-propriononitrile) (Figure 1). […] ZD1033 is currently being evaluated in identical phase III efficacy and tolerability studies vs megestrol acetate in post- menopausal women with advanced breast cancer in the USA and Europe. This paper describes two studies that investigated the pharmacokinetic profile, selectivity, tolerability and efficacy in oestradiol suppression of multiple doses of ZD1033. The objective of the studies was to determine the minimum dose required for maximal suppression of circulating oestradiol, while retaining selectivity for the aromatase enzyme. […]

[4] = human, in vivo
Description: as §2

clinical = conditions: female, human, plasma, oral; for half-life: mean half-life
[5] = system: adrenal gland steroidogenesis; conditions: cited from earlier work
[6] = cited from earlier work
aromatase [7] = target: T1, aromatase; conditions: cited from earlier work
[8] = 3 mg vs placebo, not statistically significant

Compound: CC(C)(C#N)c1cc(Cn2cncn2)cc(C(C)(C)C#N)c1 [ZD1033, 2,2[5-(1 H-12,4-triazol-I -ylmethyl)-1,3-phenylene] bis (2-methyl-propriononitrile)]
- reduction in serum oestradiol levels (to the limit of detection of the available assay) (aromatase [1]; 1 mg daily p.o.): > 80%
- reduction in concentration of serum oestradiol of baseline following multiple dosing (aromatase [1]; all three doses (0.5, 1.0, 3 mg daily)): approximately 80%
- minimal dose required for maximal suppression of oestradiol (aromatase [1]; from number of volunteers below assay limit of detection 24 h after last dose): 1.0 mg
- decrease of oestradiol concentration compared with placebo values (aromatase [1]; trial 1, 3 mg daily days 4-10, by day 8, P = 0.004): approximately 80%
- oestradiol suppression compared with placebo values (aromatase [1]; trial 1, 3 mg, 24 h after the last dose): 70%
- reduction of mean serum oestradiol concentration compared with placebo (aromatase [1]; trial 1, 3 mg, by 48 h after the first dose, P = 0.001): approximately 70%
- recovery of serum oestradiol after first dose (aromatase [1]; trial 1, single 3 mg dose, up to 72 h): no recovery apparent by 72 h
- reduction of mean scaled oestradiol AUC 24 h after dosing on days 1-14 (aromatase [1]; trial 2, 0.5 mg daily): 82%
- women with serum oestradiol below the limit of detection of the assay (aromatase [1]; trial 2, 0.5 mg daily, 24 h after the last dose): one out of six
- mean post last dose oestradiol concentration (aromatase [1]; trial 2, 0.5 mg daily, baseline mean 46 pmol l-1): 5.9 pmol/L
- mean BS oestradiol concentration 24 h after dosing on days 13 and 14, adjusted geometric mean (aromatase [1]; trial 2, 0.5 mg daily): 0.156
- BS oestradiol AUC days 1-14, adjusted geometric mean (aromatase [1]; trial 2, 0.5 mg daily): 0.175
- mean post-dose scaled oestradiol suppression compared with baseline (aromatase [1]; trial 2, 0.5 mg daily): 84%
- reduction of mean scaled oestradiol AUC 24 h after dosing on days 1-14 (aromatase [1]; trial 2, 1.0 mg daily): 84%
- women with serum oestradiol below the limit of detection of the assay (aromatase [1]; trial 2, 1 mg daily, 24 h after the last dose): five out of seven
- mean post last dose oestradiol concentration (aromatase [1]; trial 2, 1.0 mg daily, baseline mean 28 pmol l-1): 3.2 pmol/L
- mean BS oestradiol concentration 24 h after dosing on days 13 and 14, adjusted geometric mean (aromatase [1]; trial 2, 1.0 mg daily): 0.138
- BS oestradiol AUC days 1-14, adjusted geometric mean (aromatase [1]; trial 2, 1.0 mg daily): 0.160
- mean post-dose scaled oestradiol suppression compared with baseline (aromatase [1]; trial 2, 1.0 mg daily): 86%
- duration of suppression of mean oestradiol concentrations (aromatase [1]; trial 2, 0.5 and 1 mg daily for 14 days): remained suppressed from 3 h after the first dose to 6 days after the last dose
- treatment effect (ratio 0.5 - 1.0 mg), BS oestradiol AUC days 1-14 (aromatase [1]; trial 2, 95% confidence (0.52, 2.30), P 0.794): 1.09
- treatment effect (ratio 0.5 - 1.0 mg), mean BS oestradiol days 13 and 14 (aromatase [1]; trial 2, 95% confidence (0.55, 2.33), P 0.713): 1.13
- recovery in oestradiol after the last dose (aromatase [1]; up to 144 h after the last dose): no recovery
- scaled oestrone: percentage reduction in geometric mean relative to placebo (aromatase [2]; 96 h after dose on day 10): 39.7%
- scaled oestrone: percentage reduction in geometric mean relative to placebo (aromatase [2]; Day 2): 36.2%
- scaled oestrone: percentage reduction in geometric mean relative to placebo (aromatase [2]; Day 3): 29.4%
- scaled oestrone: percentage reduction in geometric mean relative to placebo (aromatase [2]; Day 4): 34.6%
- scaled oestrone: percentage reduction in geometric mean relative to placebo (aromatase [2]; Day 6): 41.1%
- scaled oestrone: percentage reduction in geometric mean relative to placebo (aromatase [2]; Day 8): 34.8%
- scaled oestrone: percentage reduction in geometric mean relative to placebo (aromatase [2]; Day 10): 44.9%
- maximal suppression of mean serum oestrone compared with placebo values (aromatase [2]; from study day 6 onwards): approximately 40%
- recovery of serum oestrone after the last dose (aromatase [2]; up to 96 h after the last dose): no recovery apparent by 96 h after the last dose
- alteration in mean serum concentration of DHEA-S relative to placebo (adrenal steroidogenesis; 3 mg): No clinically significant alterations
- change in mean serum concentration of cortisol (adrenal steroidogenesis; 3 mg vs placebo): No statistically significant changes
- change in mean serum concentration of 17-HP (adrenal steroidogenesis; [8]): no consistent changes
- change in mean serum concentration of aldosterone (adrenal steroidogenesis; [8]): no consistent changes
- change in mean serum concentration of androstenedione (adrenal steroidogenesis; [8]): no consistent changes
- scaled 17-HP: percentage change of scaled geometric mean relative to placebo (adrenal steroidogenesis; 3 mg, Day 1, 3 h after dose): -26.9%
- scaled aldosterone: percentage change of scaled geometric mean relative to placebo (adrenal steroidogenesis; 3 mg, Day 1, 3 h after dose): -12.9%
- scaled 17-HP: percentage change of scaled geometric mean relative to placebo (adrenal steroidogenesis; 3 mg, Day 10, 3 h after dose): 48.9%
- scaled aldosterone: percentage change of scaled geometric mean relative to placebo (adrenal steroidogenesis; 3 mg, Day 10, 3 h after dose): 21.0%
- scaled 17-HP: percentage change of scaled geometric mean relative to placebo (adrenal steroidogenesis; 3 mg, Day 10, pre-dose): 3.8%
- scaled aldosterone: percentage change of scaled geometric mean relative to placebo (adrenal steroidogenesis; 3 mg, Day 10, pre-dose): 24.6%
- effect on ACTH, LH or FSH (gonadotrophin release; 3 mg vs placebo): None of the data suggested an effect
- scaled FSH: percentage change of scaled geometric mean relative to placebo (gonadotrophin release; Day 1, 3 h after dose): 0.01%
- scaled LH: percentage change of scaled geometric mean relative to placebo (gonadotrophin release; Day 1, 3 h after dose): -9.5%
- scaled FSH: percentage change of scaled geometric mean relative to placebo (gonadotrophin release; Day 10, 3 h after dose): -3.4%
- scaled LH: percentage change of scaled geometric mean relative to placebo (gonadotrophin release; Day 10, 3 h after dose): 12.2%
- scaled FSH: percentage change of scaled geometric mean relative to placebo (gonadotrophin release; Day 10, pre-dose): 1.54%
- scaled LH: percentage change of scaled geometric mean relative to placebo (gonadotrophin release; Day 10, pre-dose): -9.3%
- difference of 17-HP after ACTH stimulation from values obtained on placebo [3]: up to 12%
- difference of cortisol after ACTH stimulation from values obtained on placebo [3]: up to 12%
- changes in blood pressure, pulse rate or ECG [4]: no evidence of changes
- Cmax (clinical; 0.5 mg): 5.97 ng/mL
- Tmax (clinical; 0.5 mg): 2 h
- half-life (clinical; 0.5 mg): 45.7 h
- Cmax (clinical; 1 mg): 13.7 ng/mL
- Tmax (clinical; 1 mg): 2 h
- half-life (clinical; 1 mg): 40.6 h
- Tmax (clinical; 3 mg): 3 h
- half-life (clinical; 3 mg, after the first dose of 3 mg): 50.7 h
- half-life (clinical; 3 mg, after the last dose of 3 mg): 45.4 h

Compound: CCC1(c2ccc(N)cc2)CCC(=O)NC1=O (centres unmarked) [aminoglutethimide]
- selectivity for the aromatase enzyme ([5]; 250 mg q.i.d., also inhibits adrenal gland steroidogenesis, ref Lonning and Johannessen, 1991): non-selective
- toxicity ([6]; ref Lonning and Johannessen, 1991): marked toxicity

Compound: C[C@]12CCC(=O)C(O)=C1CC[C@@H]1[C@@H]2CC[C@]2(C)C(=O)CC[C@@H]12 [formestane]
- oestradiol suppression (aromatase [7]; in vivo): 49- 64%
- adverse reactions ([6]; 250 mg i.m. once every 2 weeks, ref Hoffken et al., 1993): injection site reactions

Compound: N#Cc1ccc(C(c2ccc(C#N)cc2)n2cncn2)cc1 [letrozole]
- reduction in oestradiol levels (aromatase [7]; ref Iveson et al., 1993): up to 86%
- selectivity: interference with adrenal steroidogenesis ([5]; in vivo): no reports of letrozole interfering
